Assay results as given in US20080071116A1, “Modulators of Lysophosphatidic Acid (Lpa) Signaling and the Use Thereof” (THE BOARD OF REGENTS OF THE UNIVERSITY OF TEXAS SYSTEM, priority 2004, published 2008).

Assays:
LPA3 receptor [1] = target: T1, LPA3 receptor (Homo sapiens, UniProt Q9UBY5); assay: GTP[γ-35S] binding assay, HEK293 T membranes, LPA3; assay type: biochemical; details: HEK293 transfected with LPA3, FIG. 59C
T1 construct: expressed in transfected cells; host or cells: HEK293 T cells (crude microsomal membranes)
Procedure: (§1) OMPT also enhances GTP [γ-^35S] binding in the cell membrane of HEK293 T cells expressing LPA3. The procedures for these GTP [γ-^35S] binding assays involve co-transfection of HEK293 T cells with expression vectors encoding one of the receptors for LPA (LPA1, LPA2, or LPA3) or S1P (S1P3/Edg3) by calcium phosphate precipitation, together with plasmids encoding three G proteins (rat Gi2α, cow β1, and cow γ2). After about 48 hours, cells were harvested and crude microsomal membranes were prepared. Membranes containing about 5 μg of protein were incubated in 0.1 ml of GTP-binding buffer (50 mM Hepes, 100 mM NaCl, 10 mM MgCl2, pH7.5) having 5 μg of saponin, 0.1% fatty acid-free BSA, 10 μM GDP, 0.1 nM GTP[γ-^35S] (1200 Ci/mmole) together with indicated concentrations of LPA or OMPT for about 30 min at 30° C. Membranes were collected using a 96-well Brandel Cell Harvester (Gaithersburg, Md.), and bound radionuclide was determined using a Packard TopCount liquid scintillation counter.
T1 sequence (P04897 2-355 partner limits assumed, one chain of several): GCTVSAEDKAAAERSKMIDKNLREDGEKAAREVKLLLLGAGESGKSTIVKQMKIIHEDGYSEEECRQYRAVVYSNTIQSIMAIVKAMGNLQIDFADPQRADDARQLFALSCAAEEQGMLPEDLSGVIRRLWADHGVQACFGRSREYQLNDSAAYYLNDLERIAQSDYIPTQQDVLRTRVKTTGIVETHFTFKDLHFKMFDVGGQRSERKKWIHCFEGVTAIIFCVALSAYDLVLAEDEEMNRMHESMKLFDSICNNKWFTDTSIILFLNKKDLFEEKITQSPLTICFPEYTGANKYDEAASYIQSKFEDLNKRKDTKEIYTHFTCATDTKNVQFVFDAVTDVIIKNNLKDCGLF
T1 sequence (P62871 2-340 partner limits assumed, one chain of several): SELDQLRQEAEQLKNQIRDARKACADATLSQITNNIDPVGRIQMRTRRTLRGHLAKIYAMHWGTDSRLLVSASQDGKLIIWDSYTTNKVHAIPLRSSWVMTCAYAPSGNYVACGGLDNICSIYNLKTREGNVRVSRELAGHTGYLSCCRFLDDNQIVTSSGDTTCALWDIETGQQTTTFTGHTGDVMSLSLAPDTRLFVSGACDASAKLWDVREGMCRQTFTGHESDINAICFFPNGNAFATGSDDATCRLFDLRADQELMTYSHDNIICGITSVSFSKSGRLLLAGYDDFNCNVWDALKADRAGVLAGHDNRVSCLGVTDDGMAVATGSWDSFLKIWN
T1 sequence (P63212 2-68 partner limits assumed, one chain of several): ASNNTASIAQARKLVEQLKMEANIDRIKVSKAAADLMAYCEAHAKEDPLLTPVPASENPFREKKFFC

ERK1/2 = ERK1/2 (p42/p44-MAPK) phosphorylation immunoblot in prostate cancer cells; assay type: cell-based, human; details: PC-3 and DU145 cells
Procedure: (§2) The cells were then lysed in SDA sample buffer or ice-cold X-100 lysis buffer (1% Triton X-100, 50 mM HEPES [pH7.4], 150 mM NaCl, 1.5 mM MgCl2, 1 mM EGTA, 10% glycerol, 100 mM NaF, 10 mM Na pyrophosphate, and 1 mM aprotinin). Total cellular protein was resolved by SDS/PAGE, transferred to immobilon [poly (vinylidene difluoride)], and immunoblotted with antibodies following the protocols provided by manufactures. Immunocomplexes were visualized with an enhanced chemiluminescence detection kit (Amersham Pharmacia) using horseradish peroxidase-conjugated secondary antibodies (Bio-Rad).

LPA2 receptor = LPA2 receptor (Homo sapiens, UniProt Q9HBW0); assay: HA-Erk1 phosphorylation in HEK 293 T cells transfected with LPA2; assay type: cell-based; parameters: expressed in transfected cells; details: LPA2 transfected HEK 293 T; 0.01, 0.1, or 1 μM
Description: (§3) We have also tested kinase activation by the LPA3 receptor subtype using OMPT as a tool. We determined whether activation of the LPA3 receptor by OMPT can be linked to ERK activation (related to MAP kinase signaling pathway) in mammalian cells, HEK 293 T cells, by co-transfecting hemagglutinin (HA)-tagged Erk1 (HA-Erk1) with either a control vector or an expression vector having LPA1, LPA2, or LPA3. […] There is no phosphorylation of HA-Erk1 at lower concentration of LPA or OMPT in the absence of LPA receptors. […] Thus, the data confirmed that OMPT, an LPA derivative, is a selective agonist for LPA3 receptor subtype, capable of inducing MAPK activation.

LPA1 receptor [2] = target: T2, LPA1 receptor (Homo sapiens, UniProt Q92633); assay: GTP[γ-35S] binding assay, HEK293 T membranes, LPA1; assay type: biochemical; parameters: expressed in transfected cells; host or cells: HEK293 T cells (crude microsomal membranes); details: HEK293 transfected with LPA1, FIG. 59A
Procedure: as §1

LPA1 receptor [3] = target: T2, LPA1 receptor; assay: HA-Erk1 phosphorylation in HEK 293 T cells transfected with LPA1; assay type: cell-based; parameters: FLAG; expressed in transfected cells; host or cells: HEK 293 T cells; details: LPA1 transfected HEK 293 T; 0.01, 0.1, or 1 μM
Description: as §3

LPA1 receptor [4] = target: T2, LPA1 receptor; assay: calcium mobilization in Sf9 insect cells expressing LPA1; assay type: cell-based
S1P3 receptor = target: T3, S1P3 receptor (Homo sapiens, UniProt Q99500); assay: GTP[γ-35S] binding assay, HEK293 T membranes, S1P3 control; assay type: biochemical; details: cells transfected with S1P3, negative control, FIG. 59D
T3 construct: expressed in transfected cells; host or cells: HEK293 T cells (crude microsomal membranes)
Procedure: as §1

LPA3 receptor [5] = target: T4, LPA3 receptor (Homo sapiens, UniProt Q9UBY5); assay: calcium mobilization in Sf9 insect cells expressing LPA3; assay type: cell-based; parameters: expressed in transfected cells; host or cells: Sf9 insect cells
T4 sequence (Q9UBY5 1-353): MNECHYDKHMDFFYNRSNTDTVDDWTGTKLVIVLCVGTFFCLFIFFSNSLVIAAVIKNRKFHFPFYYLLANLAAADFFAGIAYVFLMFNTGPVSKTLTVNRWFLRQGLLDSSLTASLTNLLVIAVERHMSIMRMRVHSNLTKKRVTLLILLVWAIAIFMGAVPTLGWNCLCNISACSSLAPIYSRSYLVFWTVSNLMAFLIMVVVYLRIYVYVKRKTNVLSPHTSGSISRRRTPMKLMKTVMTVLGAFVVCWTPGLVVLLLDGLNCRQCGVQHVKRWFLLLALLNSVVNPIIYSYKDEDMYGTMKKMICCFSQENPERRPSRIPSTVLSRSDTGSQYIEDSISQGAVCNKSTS

[6] = tested on: chimera receptor, LPA1/LPA2; assay: calcium mobilization in Sf9 cells expressing LPA1/LPA2 chimera receptor; assay type: cell-based; details: FIG. 58C
AKT = AKT phosphorylation immunoblot in prostate cancer cells; assay type: cell-based, human; details: PC-3 and DU145 cells
Procedure: as §2

T2 sequence (Q92633 whole entry): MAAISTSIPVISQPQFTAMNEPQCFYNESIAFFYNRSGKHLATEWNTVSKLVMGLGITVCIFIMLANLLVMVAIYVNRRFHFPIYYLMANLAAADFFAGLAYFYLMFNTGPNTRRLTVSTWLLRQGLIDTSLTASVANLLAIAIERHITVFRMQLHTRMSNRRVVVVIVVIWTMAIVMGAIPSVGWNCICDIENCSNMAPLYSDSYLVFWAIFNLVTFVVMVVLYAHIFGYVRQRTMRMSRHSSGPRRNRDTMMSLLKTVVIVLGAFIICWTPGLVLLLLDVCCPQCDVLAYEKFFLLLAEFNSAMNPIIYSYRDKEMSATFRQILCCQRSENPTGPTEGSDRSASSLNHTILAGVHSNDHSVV
T3 sequence (Q99500 whole entry): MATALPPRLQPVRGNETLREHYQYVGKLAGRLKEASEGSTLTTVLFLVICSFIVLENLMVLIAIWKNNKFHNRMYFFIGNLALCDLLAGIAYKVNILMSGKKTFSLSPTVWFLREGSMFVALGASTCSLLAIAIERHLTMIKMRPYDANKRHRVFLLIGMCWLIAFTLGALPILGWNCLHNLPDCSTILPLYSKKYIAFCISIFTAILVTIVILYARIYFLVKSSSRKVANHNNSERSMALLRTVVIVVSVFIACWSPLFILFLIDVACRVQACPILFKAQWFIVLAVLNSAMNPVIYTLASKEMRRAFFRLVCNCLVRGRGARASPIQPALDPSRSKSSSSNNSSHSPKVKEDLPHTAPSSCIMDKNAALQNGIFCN
Sequence of LPA2 receptor (Q9HBW0 whole entry): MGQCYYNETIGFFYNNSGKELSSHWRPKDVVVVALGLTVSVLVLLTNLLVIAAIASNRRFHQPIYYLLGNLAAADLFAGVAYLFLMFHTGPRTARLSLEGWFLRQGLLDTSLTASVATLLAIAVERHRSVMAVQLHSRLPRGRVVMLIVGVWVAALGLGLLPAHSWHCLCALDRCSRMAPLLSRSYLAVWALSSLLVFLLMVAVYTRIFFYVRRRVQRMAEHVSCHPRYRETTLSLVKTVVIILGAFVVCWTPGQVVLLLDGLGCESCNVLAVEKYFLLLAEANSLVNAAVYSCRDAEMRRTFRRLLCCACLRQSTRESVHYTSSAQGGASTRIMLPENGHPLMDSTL

In the case of `CCCCCCCC/C=C\CCCCCCCC(=O)OCC(COP(O)(O)=S)OC` (racemic) [OMPT, 1-oleoyl-sn2-O-methyl-rac-glycero-3-phosphothionate], the “activation in GTP[γ-35S] binding assay” value (LPA3 receptor [1]) is reported as “activates”, the “activation of p42/p44-MAPK” value (ERK1/2) is reported as “efficiently activates” and the HA-Erk1 phosphorylation (LPA2 receptor) is reported as “did not increase HA-Erk1 phosphorylation”. For the same compound, the “activation in GTP[γ-35S] binding assay” value (LPA1 receptor [2]) was “does not activate”, the HA-Erk1 phosphorylation (LPA1 receptor [3]) was “did not increase HA-Erk1 phosphorylation” and the EC50 (LPA1 receptor [4]) was over 10 µM. The “activation in GTP[γ-35S] binding assay” value (S1P3 receptor) was “does not activate”, the calcium mobilization (LPA3 receptor [5]) was “efficiently activates calcium mobilization” and the EC50 (LPA3 receptor [5]; read-out: EC50 of increase in intracellular calcium concentration) was 69 nM. For the same compound, the calcium mobilization [6] was “did not induce calcium mobilization” and the “activation of AKT” value (AKT) was “efficiently activates”.
